We go through seven molecules from US20230399608A1, “PROCESS FOR ESTABLISHING A HUMAN TESTICULAR TISSUE CULTURE SYSTEM” (PATERNA BIOSCIENCES INC., priority 2021, published 2023).

In assay [1] the test system is proliferating germ cells in cultured testicular tissue. The assay is described as follows: Inhibitor screen in cultured testicular tissue: EdU+ cells per unit area relative to best prior condition. The format is cell-based, human. As to conditions: for EdU+/area (um2) to condition 2: ratio of EdU+ cells per unit area in test condition to condition 2, inhibitor at concentration listed in Table 12. The source says:
In this study, the HIF-1a, apoptosis, inflammation, ROS, and angiogenesis pathways were primarily targeted to help maintain testicular somatic cell function and promote germ cell proliferation. The level of proliferation was quantified by calculating the number of Edu+ cells (EdU stains the cells that are in the process of replication) per unit area (in μm^2) in each condition and using the ratio of this parameter in the test condition to a previously identified best condition to quantify the effect of the tested condition.

The test system of assay [2] is testicular tissue comprising tubules and germ cells. The experiment in a line: Human testicular tissue culture: morphology and germ cell proliferation (EdU/DDX4). Type of assay: cell-based.
Excerpt: Tissue preparation: Whole testes are removed from cadaveric organ donors by DonorConnect staff, which are picked up by Utah team and transported to research lab on ice. Testicular tissues are cut by 3-5 mm by dimeter in size using surgical scissors and tweezers.
Culture media preparation: the base media is αMEM+10% KSR. We first tested various small molecular inhibitors/ligands with different concentrations in the base media to culture testicular tissues.
Tissue culture: Place three pieces of testicular tissue into one well of a 6-well plate with 2 ml of media in each well. The tissue should be fully immersed in media. Place the plate at 34° C. in 5% CO2 in an incubator with culture media changed every other day.
Morphology examination: Measure the sizes of the cultured testicular tissues at different time points, including Day 1, Day 7, Day 14, and Day 21. And then fix the sample for H&E staining.
Germ cell proliferation examination: Add Edu (2 ul into each well) at different time points at Day 0, Day 6, Day 13, Day 20. Harvest the tissue 24 hours later for the germ cell proliferation test. Samples are washed three times by PBS and digested to isolated tubules by collagenase type IV at 37° C. Then wash 3 times by PBS to terminate the digestion and perform whole-mount staining of the tubules with Edu and DDX4/UTF1/SYCP3.
For assay [3], the system named is testicular germ cell proliferation. The assay is described as follows: Screen of SSC / differentiating spermatogonia receptor ligands in the iterative culture process. Type of assay: cell-based, human. As to conditions: ligand at the concentration listed in Table 5; effective to date at improving germ cell proliferation. The source says: A process for identification and selection of receptor ligands capable of improving testicular germ cell proliferation was developed. The process uses expression data obtained by mining scRNA-seq data obtained from testicular tissue (FIG. 27). The process systematically prioritizes candidates for spermatogonia ligands through a series of bioinformatics analyses and filtering. The process comprises identifying and selecting potential ligands based on their receptor expression in State 1 SSCs (active stem cells) and State 2/3 differentiating spermatogonia (differentiated germ cells with strong proliferation ability), or any combination thereof.
More specifically, the approach was based on the single-cell RNA sequencing transcriptome profile of the adult human testis atlas (Guo, J., Grow, E. J., Mlcochova, H., Maher, G. J., Lindskog, C., Nie, X., Guo, Y., Takei, Y., Yun, J., Cai, L., et al. (2018). The adult human testis transcriptional cell atlas. Cell Research 28, 1141. 10.1038/s41422-018-0099-2; the disclosure of all of which is incorporated herein in its entirety), which provides a comprehensive characterization of cell types in the human adult testis. Pseudo-bulk RNA-seq analysis was used, which involves aggregating individual cells into groups to enhance the receptor gene expression signal on SSCs and differentiating spermatogonia. Each individual cell is assigned to its corresponding cell type cluster based and summing the expression values of all cells within each cluster to create pseudo-bulk samples.
The CellTalkDB database was used to identify receptors expressed in SSCs/differentiating spermatogonia. Specifically, the receptors whose expression in SSCs/differentiating spermatogonia ranks within the top 150 were selected, as expression levels below this point are generally low in these cell populations. […] This filtering step helps to focus on receptors that are more specific to the target cell populations. Using the CellTalkDB database, the corresponding ligands for the selected receptors were then identified. The ligand candidates were prioritized based on their expression levels in the testes, and their known functionality.
The identified ligands were then used in the iterative process of the instant disclosure for identifying culture conditions that support testicular germ cell proliferation in vitro to refine the culture conditions.

For `C[C@]12CC[C@H]3[C@@H](CC[C@]4(O)C[C@@H](O)CC[C@]34C=O)[C@@]1(O)CC[C@@H]2C1=CC(=O)OC1` [Strophanthidin], the “EdU+/area (um2) to condition 2” value in assay [1] was 2.2. Still for that read-out and setting: with `c1cc(CN2CCCNCCNCCCNCC2)ccc1CN1CCCNCCNCCCNCC1` [Plerixafor] the figure was 1.4. With `C[C@@H]1[C@H](O)[C@@H](C)/C=C/C=C/CC/C=C/C=C/C=C/C=C/C(O[C@H]2O[C@H](C)[C@@H](O)[C@H](N)[C@@H]2O)CC2O[C@](O)(CC(O)C(O)CCC(O)CC(O)CC(O)CC(=O)O[C@H]1C)CC(O)C2C(=O)O` (stereo partly drawn) [Nystatin], in assay [1] (added to first culture condition, FIG. 31 / Table 12), the “improving germ cell proliferation” value is “effective at improving germ cell proliferation”. Besides, the “EdU+/area (um2) to condition 2” value in assay [1] is given as 2.1. For `CS[C@H]1SC[C@H]2C(=O)N(C)[C@@H](C(C)C)C(=O)OC[C@@H](NC(=O)c3cnc4ccccc4n3)C(=O)N[C@@H](C)C(=O)N(C)[C@@H]1C(=O)N(C)[C@@H](C(C)C)C(=O)OC[C@@H](NC(=O)c1cnc3ccccc3n1)C(=O)N[C@@H](C)C(=O)N2C` [echinomycin, Echinomycin], the germ cell survival entry in assay [2] (even two weeks after start of culture) is recorded as “helps germ cell survival”. The “maintenance of testicular tissue structure” value in assay [2] (inhibitor added to base culture media) was “helps maintain testicular tissue structure”. As to `O=C(Nc1ccc([N+](=O)[O-])cc1O)Nc1ccccc1Br` [SB225002], the “EdU+/area (um2) to condition 2” value in assay [1] is 1.7. For the molecule `CC(C)=CCC[C@](C)(O[C@@H]1O[C@H](CO)[C@@H](O)[C@H](O)[C@H]1O)[C@H]1CC[C@]2(C)[C@@H]1[C@H](O)C[C@@H]1[C@@]3(C)CC[C@H](O)C(C)(C)[C@@H]3[C@@H](O[C@@H]3O[C@H](CO)[C@@H](O)[C@H](O)[C@H]3O[C@@H]3OC[C@@H](O)[C@H](O)[C@H]3O)C[C@]12C` [Notoginsenoside R1], the “EdU+/area (um2) to condition 2” value in assay [1] was found to be 1.5.

B1: rh ADAM10: ligand of CADM1/TSPAN14/TSPAN15/TSPAN12 (protein, UniProt O14672 214-748, looked up)
Disintegrin and …: TTSAEKNTCQLYIQTDHLFFKYYGTREAVIAQISSHVKAIDTIYQTTDFSGIRNISFMVKRIRINTTADEKDPTNPFRFPNIGVEKFLELNSEQNHDDYCLAYVFTDRDFDDGVLGLAWVGAPSGSSGGICEKSKLYSDGKKKSLNTGIITVQNYGSHVPPKVSHITFAHEVGHNFGSPHDSGTECTPGESKNLGQKENGNYIMYARATSGDKLNNNKFSLCSIRNISQVLEKKRNNCFVESGQPICGNGMVEQGEECDCGYSDQCKDECCFDANQPEGRKCKLKPGKQCSPSQGPCCTAQCAFKSKSEKCRDDSDCAREGICNGFTALCPASDPKPNFTDCNRHTQVCINGQCAGSICEKYGLEECTCASSDGKDDKELCHVCCMKKMDPSTCASTGSVQWSRHFSGRTITLQPGSPCNDFRGYCDVFMRCRLVDADGPLARLKKAIFSPELYENIAEWIVAHWWAVLLMGIALIMLMAGFIKICSVHTPSSNPKLPPPKPLPGTLKRRRPPQPIQQPQRQRPRESYQMGHMRR
In the case of B1, in assay [3], the Effective result was “No”.
